Test results: ChEMBL document CHEMBL1649539, “Pharmacokinetics-pharmacodynamics of pyrazinamide in a novel in vitro model of tuberculosis for sterilizing effect: a paradigm for faster assessment of new antituberculosis drugs” (Antimicrob Agents Chemother, 2009)
Active and inactive are the calls of the source. The calls are words filed in the database; no cut-off is given here.

Key:
[1] = Ratio of AUC (0 to 24 hrs) to MIC associated with 2 log10CFU/ml bacterial count in patient infected with Mycobacterium tuberculosis H37Rv; format: functional
[2] = Volume of distribution in Mycobacterium tuberculosis H37Rv; format: ADME, organism-based; conditions: in vivo
[3] = test system: Mycobacterium tuberculosis; assay: Antimycobacterial activity against Mycobacterium tuberculosis H37Rv isolated from patient with tuberculosis assessed as bacterial load per day at >= 15 mg/kg, po after 4 days; format: functional
[4] = Absorption rate constant in Mycobacterium tuberculosis H37Rv; format: ADME
[5] = Ratio of AUC (0 to 24 hrs) to MIC associated with 0.5 log10CFU/ml bacterial count in patient infected with Mycobacterium tuberculosis H37Rv; format: functional
[6] = test system: Mycobacterium tuberculosis; assay: Antimycobacterial activity against Mycobacterium tuberculosis H37Rv isolated from patient with tuberculosis at >= 15 mg/kg, po after 14 to 21 days; format: functional, organism-based; design: dose 15 mg/kg
[7] = Ratio of AUC (0 to 24 hrs) to MIC associated with 1 log10CFU/ml bacterial count in patient infected with Mycobacterium tuberculosis H37Rv; format: functional
[8] = Elimination rate constant in Mycobacterium tuberculosis H37Rv; format: ADME
[9] = Clearance in Mycobacterium tuberculosis H37Rv; format: ADME
[10] = test system: Mycobacterium tuberculosis; assay: Antimycobacterial activity against Mycobacterium tuberculosis H37Rv isolated from patient with tuberculosis assessed as bacterial load per day at 15 to 30 mg/kg, po after 2.5 to 3 weeks; format: functional

Structure (SMILES): NC(=O)c1cnccn1 [PYRAZINAMIDE]
- log10CFU/ml [1]: 66.67
- Vd [2]: 1.68 L/kg
- log10CFU/ml/day [3]: 0.05
- Ka [4]: 3.45 h⁻¹
- log10CFU/ml [5]: 9.43
- Activity [6]: inactive
- log10CFU/ml [7]: 20.26
- k el [8]: 1.67e-05 s⁻¹
- clearance [9]: 1.67 mL/min/kg
- log10CFU/ml/day [10]: 0.09
